Key:
[1] = test system: Drosophila melanogaster flies; experiment: Lifespan of adult Drosophila melanogaster flies fed with compound (Kaplan-Meier analysis); type: in vivo; details: 10 μM compound in food; for Average Lifespan: ±margin of error
Experimental: The experiments were conducted on isogenic flies (Drosophila melanogaster) of the genotype white^1118, also called white^− or w^−, and mutants (w^1118; step^k08110/step^SH0323) (strain # 10770 from the public Bloomington Stock Center, genotype: step^k08110/CyO, URL http://flybase.bio.indiana.edu/reports/FBstOO10770.html; strain # FBst0103734 from the public Szeged Stock Center, genotype: step^SH0323/CyO, URL http://flybase.bio.indiana.edu/reports/FBst0103734.html), in which the Drosophila cytohesin steppke is mutated and therefore defective.
By crossing the two steppke alleles k08110 and SH0323 eight times with whites flies, an isogenic genetic background is produced, which permits a comparison of the lifespans between the genotypes of the type white^1118 and the mutants (w^1118; step^k08110/step^SH0323). The average lifespan of the wild type was approximately 25 days, while that of the mutants (w^1118; step^k08110/step^SH0323) was approximately 30 days.
To produce the special food, 32.5 g autolysed yeast (Fluka (Catalog No. 73145)) and 10 g agar (Difco (Catalog No. 281230)) were mixed with 300 ml water (demineralized, Roth (Catalog No. 3175)) and autoclaved at 120° C. for 20 minutes. The solution was cooled to 60° C., and 32.5 g α-D(+)-glucose monohydrate (Roth (Catalog No. 6887)) were added under stirring. 15 ml 10% (w/v) p-hydroxybenzoic acid methylester (Sigma (Catalog No. H3647)) solution dissolved in 70% (v/v) ethanol (Roth (Catalog No. 9065)) and 1.35 ml dimethylsulfoxide (DMSO, Roth (Catalog No. A994)) were then added. Water was then added to this basic solution to a volume of 450 ml, which was then held at a temperature of 60° C. For the control food, 50 ml of a 0.7% (v/v) DMSO solution in water were produced. For the food containing the compounds according to formulas (9) or (25), 0.2 ml of a 25 mM solution of the compounds according to formula (9) or (25) in 100% DMSO were added to 49.8 ml of a 0.3012% DMSO solution in water.
These 50 ml of the control solutions and the solutions containing the compounds according to formula (9) or (25) were each mixed with 450 ml of the basic solution, and were placed in 4 ml amounts in polystyrene containers (height 9.5 cm, diameter 2.4 cm, sealed with cotton wadding) to maintain the flies. After 24 hours, the cooled containers were sealed with cotton wadding and stored at 4° C.
The final concentration of the food components in the control food was 6.5% (w/v) autolysed yeast, 6.5% (w/v) α-D(+)-glucose monohydrate, 2% (w/v) agar, 0.3% (w/v) p-hydroxybenzoic acid methylester, 2.1% ethanol (v/v), 0.34% (v/v) DMSO.
(§1) The final concentration of the food components in the food containing the compound according to formula (9) was 6.5% (w/v) autolysed yeast, 6.5% (w/v) α-D(+)-glucose monohydrate, 2% (w/v) agar, 0.3% (w/v) p-hydroxybenzoic acid methylester, 2.1% ethanol (v/v), 0.34% (v/v) DMSO, 10 μM compound according to formula (9).
as §1, with “(25)” for “(9)”, “(25).” for “(9).”
The larvae were maintained on standard fly food containing 1.1% (w/v) brewer's yeast (“Gewürzmühle Brecht” company), 5.43% (w/v) cornmeal, 0.53% (w/v) filamentous agar (“Gewürzmühle Brecht” company), 6.6% (v/v) sugar beet syrup (Grafschafter), 1.3% (v/v) ethanol (Roth company), 0.13% (w/v) p-hydroxybenzoic acid methylester (Sigma).
24 hours after emergence of the imagines, the adult flies, females and males were separated under a brief CO2 anesthetization lasting less than 2 minutes. During the 24 hours after emergence, the animals were fed using standard fly food. […]

[2] = test system: Drosophila eukaryotic initiation factor 4E binding protein (d4EBP, Thor); experiment: Transcription rate of insulin target gene d4EBP in insulin-treated Drosophila S2 cells (real-time PCR); type: cell-based; details: 100 μM compound, 10 μg/ml human insulin, insulin alone less than 35%
Experimental: Drosophila Schneider 2 (S2) cells were cultivated in Schneider's Medium (PAN company) with 10% heat-inactivated fetal calf serum (FCS). 2×10^6 cells were drawn into 35 mm vessels at 25° C. to 80% confluence, washed one time in phosphate buffered saline solution (1×PBS, Gibco), and transferred for twelve hours to Schneider's Medium, without FCS. The cells were then preincubated for two hours with 0.5% DMSO containing Schneider's Medium, without FCS, with or without the compound according to formula (9) or formula (25), with the final concentrations of the compounds according to formulas (9) and (25) being 1 μM, 10 μM and 100 μM. This was followed by a four-hour stimulation with 10 μg/ml human insulin (Sigma).
After washing the cells two times with PBS, total RNA was then isolated from the cells using the NucleoSpin RNA II Kit (Macherey & Nagel), according to the manufacturer's instructions. The first strain cDNA synthesis was performed with every 500 ng RNA, using the QuantiTect Reverse Transcription Kit (Qiagen), according to the manufacturer's instructions. […]
The activity of the insulin signaling pathway was determined from the transcription rate of the insulin target gene Drosophila eukaryotic initiation factor 4E binding protein (d4EBP, Thor). […]

For `COc1nc(-c2ccc(C(C)(C)C)cc2)n(-c2ccc(NC(=O)CSc3ccccc3)cc2)n1` [Compound (25)], the change in lifespan ([1]; control animals and mutants) was “no significant change”, the “Average Lifespan” value ([1]; genotype w^1118, female flies) was 25.0 (±0.7) Days and the “Average Lifespan” value ([1]; genotype w^1118, step^k08110/step^SH0323 mutants, female flies) was 29.3 (±0.7) Days. The “transcription rate of d4EBP as % of that of the untreated control groups” value [2] was “more than 95%”.
